Experimental data: PubChem BioAssay (NCI)
“And” between values parts separate entries of the source, which are not always exact repeats. Equal values may be shown once.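 Dose response: 5 concentrations. Exposure: 48 h. Format: 96-well plates. Endpoint: linear interpolation; highest concentration if not reached. GI50: concentration for 50% inhibition of growth. Definition used: TGI = concentration required for complete inhibition of growth.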

Key:
Assay in all cases: NCI tumour cell line growth inhibition, 48 h
SN12C renal = system: SN12C renal
COLO 205 colon = system: COLO 205 colon
HS 578T breast = system: HS 578T breast
UACC-62 melanoma = system: UACC-62 melanoma
SF-295 CNS = system: SF-295 CNS
SK-OV-3 ovarian = system: SK-OV-3 ovarian
HOP-92 NSCLC = system: HOP-92 NSCLC
SNB-19 CNS = system: SNB-19 CNS
SNB-75 CNS = system: SNB-75 CNS
T-47D breast = system: T-47D breast

Compound	GI50 (SN12C renal) [µM]	TGI (SN12C renal) [µM]	GI50 (COLO 205 colon) [µM]	TGI (COLO 205 colon) [µM]	GI50 (HS 578T breast) [µM]	TGI (HS 578T breast)	GI50 (UACC-62 melanoma) [µM]	TGI (UACC-62 melanoma)	GI50 (SF-295 CNS) [µM]	TGI (SF-295 CNS)	GI50 (SK-OV-3 ovarian) [µM]	TGI (SK-OV-3 ovarian)	GI50 (HOP-92 NSCLC) [µM]	TGI (HOP-92 NSCLC) [µM]	GI50 (SNB-19 CNS) [µM]	TGI (SNB-19 CNS)	GI50 (SNB-75 CNS) [µM]	TGI (SNB-75 CNS) [µM]	GI50 (T-47D breast) [µM]	TGI (T-47D breast)
NC(=O)c1ncn(C2OC(CO)C(O)C2O)c1N (stereo not given)	> 100	> 100	> 100	> 100	> 100	> 100 µM	> 100	> 100 µM	> 100	> 100 µM	> 100	> 100 µM	> 100	> 100	> 100	> 100 µM	> 100	> 100	> 100	> 100 µM
CNCc1ccc(-c2[nH]c3cc(F)cc4c3c2CCNC4=O)cc1	16.5	48	11.7	26.4	19.5	67.9 µM	15	29.8 µM	18.8	45.7 µM	18.6	56 µM	17.9	> 69.5	17.3	57 µM	9.49	27.3	16.8	55 µM
C=C(Cl)[C@@](Cl)(CBr)CC[C@@H](Br)C(C)(C)Cl		17.3	0.776		0.208	0.741 µM and 2.1 µM	4.53	24.5 µM and 3.84 µM		2.46 µM and 0.452 µM	8	22.2 µM and 26.3 µM		0.807	0.358	1.54 µM and 1.52 µM	1.35		0.775	2.98 µM and 0.797 µM
N/C(=N\C(N)=N\c1nc2ccccc2s1)c1cnccn1	4.18	> 100			4.7	> 100 µM	1.74	3.52 µM	3.19	22.6 µM	1.84	3.83 µM	3.05	16.1	3.57	41.6 µM	2.15	15.3	2.24	6.22 µM
CCCCC[C@@H](C/C=C/CCC(=O)NC/C(=C/Cl)[C@H]1C(=O)C(C)(C)C(=O)[C@@H](C)[C@@]1(C)O)OC	17.3	32	18.5	33.6			15.6	29.1 µM	13.5	26.4 µM	30.8	68.7 µM	19.2	38.2	20.3	42 µM	20.5	44.7	15.4	34.6 µM
COc1cc(/C=C\c2cc(OC)c(OC)c(OC)c2)cc(NS(=O)(=O)c2ccc(Cl)cc2)c1OC	0.75	> 100	0.253	0.652	0.351	> 100 µM	0.435	36.7 µM	0.319	84 µM	0.449	> 100 µM	0.72	72.3	0.745	> 100 µM			0.381	> 100 µM
COc1cccc(C2C(C#N)=C(N)Oc3cc4c(cc32)OCO4)c1 (stereo not given)	0.0778	> 46.2	0.0492	0.325	0.0316	25.5 µM	0.0505	> 53.8 µM	0.035	22 µM	0.0508	4.71 µM			0.0682	> 100 µM	0.0275	46.5	0.0502	28 µM
O=C(N/N=C/c1ccc(F)cc1)c1ccc(C(F)(F)F)nc1Nc1cccc(C(F)(F)F)c1	1.63	7.73	1.56	3.47	1.73	6.87 µM	1.66	5.77 µM	0.744	2.69 µM	1.17	4.56 µM			1.51	7.99 µM	1.64	10.2	1.02	4.39 µM
O=C(OC[C@@H]1CO1)c1cccc2c(=O)c3ccccc3[nH]c12	0.196	1.41	0.246	1.41	0.499	3.78 µM	0.229	0.56 µM	0.432	2.5 µM			0.444	5.02	0.505	5.51 µM	0.288	1.49	0.89	5.55 µM
CCOc1ccc(Nc2nc(-c3c(C)nc4ncccn34)cs2)cc1	0.0769	28.2	< 0.01	0.0404	0.0357	23.3 µM	< 0.01	12.8 µM	< 0.01	15.3 µM	0.017	5.48 µM	0.0362	13.4	0.0538	23.5 µM			1.04	17.1 µM
O=c1[nH]c2ccc([N+](=O)[O-])c(Cl)c2c2ccccc12		14.4		26.3		> 100 µM		15.5 µM		9.18 µM		4.86 µM				10.5 µM		56.7		73.7 µM
O=C(Nc1ccc(C(F)(F)F)cc1[N+](=O)[O-])c1cccnc1		> 100		> 100		> 100 µM		90.8 µM		23.9 µM		> 100 µM				> 100 µM		> 100		> 100 µM
C=C1CC/C=C(\C)CC[C@H](C(=C)C)[C@@H](O)/C=C(/CO)CCC1O (stereo not given in full)	> 100	> 100	88.2	> 100	42.5	> 100 µM	57.3	> 100 µM	71.9	> 100 µM	> 100	> 100 µM			> 100	> 100 µM	> 100	> 100	45.7	> 100 µM
Oc1ccccc1C=Nc1nc(OCc2ccccc2)nc2[nH]ncc12	17.2	40.7	22.2	49.6	19.2	56.9 µM	13.6	28.9 µM	19.9	39.3 µM	25.9	55.4 µM	11.7	43.7	37.7	> 100 µM			14	46.3 µM
